{"source": "patent US8497249B1", "about": "“Fungicidal properties of three saponins from Capsicum frutescens” (The United States of America, as represented by the …, priority 2008, dated 2013)", "key": {"[1]": {"tested_on": "germinating conidia of A. flavus", "assay": "Time of fungicidal activity (time course study)", "type": "cell-based, Aspergillus flavus", "conditions": "after 5 minutes of incubation; total weight 12.67 μg/ml (4:3:3: 12.64 μg/ml)", "experimental": "Bioassays were performed as described earlier (De Lucca et al. 2002, 2006b, supra). The test fungi (Aspergillus flavus, A. niger, A. fumigatus, Fusarium oxysporum, F. solani, and F. verticilioides (formerly F. moniliforme) were grown on potato dextrose agar (Difco, Detroit, Mich.) […] for seven days (30° C.). When needed, conidia were suspended in 1% potato dextrose broth (Difco, Detroit, Mich.), pH 5.2 (PDB). Using a hemocytometer, stock suspension concentrations were determined and final (working) concentrations of 3×10^4 conidia/ml were prepared. Following preparation of the conidia, a sample of nongerminated conidia was immediately used in the bioassay to determine the effect of the saponins on nongerminated conidia. An additional conidial sample for each fungus was incubated for 8 hr at 30° C. These conidia were used in bioassays to determine activity of the saponins against germinating conidia. Individual bioassays consisted of conidia (25 μl), PDB, and the appropriate amount of a mixture of CAY-1, 1081 and 919. The CAY-1 control (CAY-1 alone) bioassays measuring the fungicidal response against the same fungi were performed in a similar manner. Final test volumes were 250 μl. […] Time of fungicidal activity for the saponin mixtures was determined by using the germinating conidia of A. flavus. […] Significance (p<0.001) was determined between viability control and test saponin data."}, "[2]": {"tested_on": "fungi of agricultural and medical importance", "conditions": "pure saponin; De Lucca et al. 2002, 2006b and others; cited from earlier work"}, "[3]": {"tested_on": "Aspergillus flavus, A. fumigatus and A. niger", "conditions": "in vitro; De Lucca et al. 2006a; cited from earlier work"}, "Fusarium oxysporum": {"tested_on": "Fusarium oxysporum", "assay": "Conidial viability bioassay (30 min incubation, colony enumeration)", "type": "cell-based", "design": "key: —: No viability reduction observed", "experimental": "(§1) Bioassays were performed as described earlier (De Lucca et al. 2002, 2006b, supra). The test fungi (Aspergillus flavus, A. niger, A. fumigatus, Fusarium oxysporum, F. solani, and F. verticilioides (formerly F. moniliforme) were grown on potato dextrose agar (Difco, Detroit, Mich.) slants for seven days (30° C.). When needed, conidia were suspended in 1% potato dextrose broth (Difco, Detroit, Mich.), pH 5.2 (PDB). Using a hemocytometer, stock suspension concentrations were determined and final (working) concentrations of 3×10^4 conidia/ml were prepared. Following preparation of the conidia, a sample of nongerminated conidia was immediately used in the bioassay to determine the effect of the saponins on nongerminated conidia. An additional conidial sample for each fungus was incubated for 8 hr at 30° C. These conidia were used in bioassays to determine activity of the saponins against germinating conidia.\n(§2) Individual bioassays consisted of conidia (25 μl), PDB, and the appropriate amount of a mixture of CAY-1, 1081 and 919. The CAY-1 control (CAY-1 alone) bioassays measuring the fungicidal response against the same fungi were performed in a similar manner. Final test volumes were 250 μl. […]\n(§3) Statistical analyses were performed on the data using SigmaStat 3.1 (Systat, Point Richmond, Calif.). Significance (p<0.001) was determined between viability control and test saponin data."}, "Aspergillus flavus": {"tested_on": "Aspergillus flavus", "assay": "Conidial viability bioassay (30 min incubation, colony enumeration)", "type": "cell-based", "design": "key to Lowest concentration showing significant (p < 0.001) viability reduction: CAY-1 Control / Total Weight of mixture: —: No viability reduction observed", "conditions": "for Lowest concentration showing significant (p < 0.001) viability reduction: CAY-1 Control / Total Weight of mixture: 30 min incubation; for Reduction of conidial viability / fungicidal activity (in words): FIG. 2A", "experimental": "as §1\n(§4) Individual bioassays consisted of conidia (25 μl), PDB, and the appropriate amount of a mixture of CAY-1, 1081 and 919. The CAY-1 control (CAY-1 alone) bioassays measuring the fungicidal response against the same fungi were performed in a similar manner. Final test volumes were 250 μl. Controls consisted of conidia and PDB medium.\n(§5) After a 30 min incubation period (30° C.), aliquots (50 μl) of each sample were spread on each of four potato dextrose agar plates. The plates were incubated for 48 hours at 30° C., followed by colony enumeration. Three separate runs per conidial type and fungus were performed (n=12).\nas §3"}, "F. solani": {"tested_on": "F. solani", "assay": "Conidial viability bioassay (30 min incubation, colony enumeration)", "type": "cell-based, Fusarium solani", "design": "key to Lowest concentration showing significant (p < 0.001) viability reduction: CAY-1 Control / Total Weight of mixture: —: No viability reduction observed", "conditions": "for Lowest concentration showing significant (p < 0.001) viability reduction: CAY-1 Control / Total Weight of mixture: 30 min incubation; for Reduction of conidial viability / fungicidal activity (in words): FIG. 2F", "experimental": "as §1, §4, §5, §3"}, "A. fumigatus": {"tested_on": "A. fumigatus", "assay": "Conidial viability bioassay (30 min incubation, colony enumeration)", "type": "cell-based, Aspergillus fumigatus", "design": "key: —: No viability reduction observed", "experimental": "as §1, §2, §3"}, "[4]": {"tested_on": "F. verticilioides (formerly F. moniliforme)", "assay": "Conidial viability bioassay (30 min incubation, colony enumeration)", "type": "cell-based, Fusarium verticilioides", "design": "key to Lowest concentration showing significant (p < 0.001) viability reduction: CAY-1 Control / Total Weight of mixture: —: No viability reduction observed", "conditions": "for Lowest concentration showing significant (p < 0.001) viability reduction: CAY-1 Control / Total Weight of mixture: 30 min incubation", "experimental": "as §1, §4, §5, §3"}, "[5]": {"tested_on": "germinating conidia of A. flavus", "conditions": "within five minutes of the initiation of incubation; De Lucca et al., 2002; cited from earlier work"}, "Fusarium species": {"tested_on": "Fusarium species", "assay": "Conidial viability bioassays, Fusarium species", "type": "cell-based", "conditions": "nongerminated conidia of the tested Fusarium isolates", "experimental": "as §1, §4\nAfter a 30 min incubation period (30° C.), aliquots (50 μl) of each sample were spread on each of four potato dextrose agar plates. […]"}, "A. niger": {"tested_on": "A. niger", "assay": "Conidial viability bioassay (30 min incubation, colony enumeration)", "type": "cell-based, Aspergillus niger", "design": "key to Lowest concentration showing significant (p < 0.001) viability reduction: CAY-1 Control / Total Weight of mixture: —: No viability reduction observed", "conditions": "for Lowest concentration showing significant (p < 0.001) viability reduction: CAY-1 Control / Total Weight of mixture: 30 min incubation; for Reduction of conidial viability / fungicidal activity (in words): FIG. 2C", "experimental": "as §1, §4, §5, §3"}, "[6]": {"conditions": "germinating conidia, listed as CAY-1 control"}, "[7]": {"conditions": "germinating conidia, listed as CAY-1 controls"}}, "data": [{"smiles": "CC1CCC2(OC1)OC1CC3C4CCC5CC(OC6OC(CO)C(OC7OC(CO)C(O)C(OC8OC(CO)C(O)C(OC9OC(CO)C(O)C(O)C9O)C8O)C7OC7OC(CO)C(O)C(O)C7O)C(O)C6O)C(O)CC5(C)C4CCC3(C)C1C2C", "note": "(stereo not shown) [CAY-1]", "values": [{"measurement": "Activity (in words)", "setting": "[1]", "result": "inactive"}, {"measurement": "Antifungal properties (in words)", "setting": "[2]", "result": "potent fungicidal properties"}, {"measurement": "Interaction with Amphotericin B and intraconazole", "setting": "[3]", "result": "additive synergy"}, {"measurement": "Lowest concentration showing significant (p < 0.001) viability reduction: CAY-1 Control / Total Weight of mixture", "setting": "Fusarium oxysporum; germinating conidia", "result": "—"}, {"measurement": "Lowest concentration showing significant (p < 0.001) viability reduction: CAY-1 Control / Total Weight of mixture", "setting": "Fusarium oxysporum; nongerminated conidia", "result": "—"}, {"measurement": "Lowest concentration showing significant (p < 0.001) viability reduction: CAY-1 Control / Total Weight of mixture", "setting": "Aspergillus flavus; germinating conidia", "result": 4.97, "unit": "µg/mL"}, {"measurement": "Reduction of conidial viability / fungicidal activity (in words)", "setting": "Aspergillus flavus; [6]", "result": "significantly (p<0.001) lower viability counts"}, {"measurement": "Reduction of conidial viability / fungicidal activity (in words)", "setting": "Aspergillus flavus; [7]", "result": "significant viability loss"}, {"measurement": "Lowest concentration showing significant (p < 0.001) viability reduction: CAY-1 Control / Total Weight of mixture", "setting": "Aspergillus flavus; nongerminated conidia", "result": "—^#"}, {"measurement": "Lowest concentration showing significant (p < 0.001) viability reduction: CAY-1 Control / Total Weight of mixture", "setting": "F. solani; germinating conidia", "result": 12.43, "unit": "µg/mL"}, {"measurement": "Reduction of conidial viability / fungicidal activity (in words)", "setting": "F. solani; germinating conidia", "result": "significantly fungicidal"}, {"measurement": "Reduction of conidial viability / fungicidal activity (in words)", "setting": "F. solani; [7]", "result": "significant viability loss"}, {"measurement": "Lowest concentration showing significant (p < 0.001) viability reduction: CAY-1 Control / Total Weight of mixture", "setting": "F. solani; nongerminated conidia", "result": "—"}, {"measurement": "Lowest concentration showing significant (p < 0.001) viability reduction: CAY-1 Control / Total Weight of mixture", "setting": "A. fumigatus; germinating conidia", "result": "—"}, {"measurement": "Lowest concentration showing significant (p < 0.001) viability reduction: CAY-1 Control / Total Weight of mixture", "setting": "A. fumigatus; nongerminated conidia", "result": "—"}, {"measurement": "Lowest concentration showing significant (p < 0.001) viability reduction: CAY-1 Control / Total Weight of mixture", "setting": "[4]; germinating conidia", "result": "—"}, {"measurement": "Reduction of conidial viability / fungicidal activity (in words)", "setting": "[4]; germinating conidia, FIG. 2D", "result": "inactive"}, {"measurement": "Lowest concentration showing significant (p < 0.001) viability reduction: CAY-1 Control / Total Weight of mixture", "setting": "[4]; nongerminated conidia", "result": "—"}, {"measurement": "Dose producing significant lethality", "setting": "[5]", "result": 12.4, "unit": "µg/mL"}, {"measurement": "Reduction of conidial viability (in words)", "setting": "Fusarium species", "result": "not reduced"}, {"measurement": "Lowest concentration showing significant (p < 0.001) viability reduction: CAY-1 Control / Total Weight of mixture", "setting": "A. niger; germinating conidia", "result": 6.62, "unit": "µg/mL"}, {"measurement": "Reduction of conidial viability / fungicidal activity (in words)", "setting": "A. niger; germinating conidia", "result": "No major differences"}, {"measurement": "Reduction of conidial viability / fungicidal activity (in words)", "setting": "A. niger; [6]", "result": "significantly (p<0.001) lower viability counts"}, {"measurement": "Reduction of conidial viability / fungicidal activity (in words)", "setting": "A. niger; [7]", "result": "significant viability loss"}, {"measurement": "Lowest concentration showing significant (p < 0.001) viability reduction: CAY-1 Control / Total Weight of mixture", "setting": "A. niger; nongerminated conidia", "result": "—"}]}]}
